Patent US20030162792A1, “Indole derivatives useful for the treatment of CNS disorders” (H. Lundbeck A/S, priority 2000, published 2003)
Where a name gives a salt, the structure may show the parent alone. Read-outs that look alike come from different tables or passages of the source.

Tests used:
[1] = target: T1, human cloned dopamine D4.2 receptors expressed in CHO-cells (Homo sapiens, UniProt P21917, DEL265-296); test: Inhibition of the binding of [3H]YM-09151-2 to human dopamine D4.2 receptors; conditions: for D4-bind. % inhibition of binding: at 50 nM
T1 construct: expressed in transfected cells; host or cells: CHO cells
T1 sequence (P21917 with tags, fused parts or gaps DEL265-296): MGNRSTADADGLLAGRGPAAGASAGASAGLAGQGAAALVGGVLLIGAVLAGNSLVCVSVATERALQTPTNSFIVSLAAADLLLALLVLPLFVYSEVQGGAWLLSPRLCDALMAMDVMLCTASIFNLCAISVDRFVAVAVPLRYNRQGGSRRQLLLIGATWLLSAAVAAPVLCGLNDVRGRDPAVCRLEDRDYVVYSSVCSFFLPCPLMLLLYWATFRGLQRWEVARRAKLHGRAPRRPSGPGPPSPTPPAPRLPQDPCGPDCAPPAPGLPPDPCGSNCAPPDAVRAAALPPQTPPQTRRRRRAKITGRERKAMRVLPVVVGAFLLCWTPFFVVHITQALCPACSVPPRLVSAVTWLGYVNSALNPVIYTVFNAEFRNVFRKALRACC
Description: Method modified from NEN Life Science Products, Inc., technical data certificate PC2533-10/96.

5-HT2A receptors = target: T2, 5-HT2A receptors (Rattus norvegicus, UniProt P14842); test: Inhibition of the binding of [3H]Ketanserin to 5-HT2A receptors
T2 construct: membranes from rat brain (cortex) in vitro; from tissue; host or cells: rat brain cortex membranes
T2 sequence (P14842 whole entry): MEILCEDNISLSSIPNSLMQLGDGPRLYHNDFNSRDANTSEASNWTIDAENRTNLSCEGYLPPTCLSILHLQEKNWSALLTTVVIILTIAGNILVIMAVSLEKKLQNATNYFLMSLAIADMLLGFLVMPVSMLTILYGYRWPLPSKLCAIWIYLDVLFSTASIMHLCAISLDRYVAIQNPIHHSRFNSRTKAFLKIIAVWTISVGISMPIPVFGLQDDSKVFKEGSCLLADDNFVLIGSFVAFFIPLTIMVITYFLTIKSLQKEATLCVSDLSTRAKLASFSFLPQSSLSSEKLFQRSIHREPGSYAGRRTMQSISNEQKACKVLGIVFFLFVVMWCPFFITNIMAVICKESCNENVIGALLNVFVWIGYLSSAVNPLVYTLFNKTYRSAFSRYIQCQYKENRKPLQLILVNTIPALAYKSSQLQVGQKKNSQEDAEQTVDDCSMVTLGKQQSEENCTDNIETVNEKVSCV
Procedure: Inhibition of the Binding of [^3H]Ketanserin to 5-HT2A Receptors
The compounds were tested with respect to their affinity for 5-HT2A receptors by determining their ability to inhibit the binding of [^3H]Ketanserin (0.50 nM) to membranes from rat brain (cortex) in vitro. Method described in Sanchez et al. Drug Dev. Res. 1991, 22, 239-250.

D4 receptor = target: T3, D4 receptor (Homo sapiens, UniProt P21917); conditions: various in vitro efficacy assays; cited from earlier work
T3 sequence (P21917 1-419): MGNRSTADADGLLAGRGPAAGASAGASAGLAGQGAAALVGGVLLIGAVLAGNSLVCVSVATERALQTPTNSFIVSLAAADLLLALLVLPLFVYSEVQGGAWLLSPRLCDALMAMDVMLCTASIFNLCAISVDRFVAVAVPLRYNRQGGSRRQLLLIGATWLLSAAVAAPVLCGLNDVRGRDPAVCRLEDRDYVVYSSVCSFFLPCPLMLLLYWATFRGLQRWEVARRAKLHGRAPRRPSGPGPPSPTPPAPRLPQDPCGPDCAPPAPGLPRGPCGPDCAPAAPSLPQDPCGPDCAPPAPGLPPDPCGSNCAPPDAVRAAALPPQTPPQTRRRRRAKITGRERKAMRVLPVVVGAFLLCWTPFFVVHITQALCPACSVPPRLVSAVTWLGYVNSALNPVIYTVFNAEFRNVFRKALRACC

[2] = [3H]Ketanserin 0.50 nM, membranes from rat brain (cortex), read-out: 5-HT2A-bind. IC50

SMILES	IC50 (5-HT2A receptors; [2]) [nM]	D4-bind. % inhibition of binding ([1]; [3H]YM-09151-2 0.06 nM)	further results
O=S1(=O)c2cccc3cccc(c23)N1CCCN1CCN(c2ccc3[nH]ccc3c2)CC1 [Compound 1a, 2-{3-[4-(1H-Indol-5-yl)piperazin-1-yl]propan-1-yl}-2H-naphtho[1,8-cd]isothiazole 1,1-dioxide, Hydrochloride]	0.79		IC50 ([1]; [3H]YM-09151-2 0.06 nM, membranes of CHO cells, read-out: D4-bind. IC50): 1.9 nM
Cl.O=S1(=O)c2cccc3cccc(c23)N1CCCN1CCN(c2ccc3cc[nH]c3c2)CC1 [Compound 1b, 2-{3-[4-(1H-Indol-6-yl)piperazin-1-yl]propan-1-yl}-2H-naphtho[1,8-cd]isothiazole 1,1-dioxide, Hydrochloride]	1.8	91% (50 nM)	
O=S1(=O)c2cccc3cccc(c23)N1CCCN1CC=C(c2ccc3[nH]ccc3c2)CC1 [Compound 1c, 2-{3-[4-(1H-Indol-5-yl)-3,6-dihydro-2H-pyridin-1-yl]propan-1-yl}-2H-naphtho[1,8-cd]isothiazole 1,1-dioxide, Hydrochloride]			IC50 [1]: 0.73 nM; IC50 (5-HT2A receptors): 0.48 nM
O=S1(=O)c2cccc3cccc(c23)N1CCCN1CCC(c2ccc3[nH]ccc3c2)CC1 [Compound 1d, Hydrochloride]	9.2	83% (50 nM)	
CC(C)Oc1cccnc1N(C)C1CCN(Cc2ccccc2)CC1 [Compound U-101958]			Functional activity at D4 receptor (literature) (D4 receptor): partial D4 receptor agonists
